Assay results from patent US20080063643A1, “Peptide Derived From Hepatitis C Virus” (priority 2003, published 2008).

Legend:
peptide-specific IgG = assay: Absorption and elution of peptide-specific IgG (Example 1); assay type: binding, human; settings: serum of the patient of FIG. 1
Procedure: One hundred microliters of a plasma or serum sample diluted with 0.05% Tween 20/Block Ace (registered trademark) was added to each well and allowed to be absorbed to the peptide (20 μg/well) coated on the well of the plate at 37° C. for 2 hours. After this procedure was repeated 3 times, the peptide-specific IgG level in the supernatant was measured by ELISA. The antibody bound to the peptide-coated plate in the initial adsorption step was eluted with 30 μl/well of 5 M NaCl/50 mM citrate buffer (pH 3.0) (neutralized with 0.05% Tween 20/Block Ace containing 1.0 M Tris-HCl (pH 7.5)), and the peptide-specific IgG level in the eluted fraction was measured by ELISA.

peptide-reactive IgG = assay: ELISA of anti-C-35 and anti-NS5A-2132 IgG in sera: cross reactivity, HLA and genotype restriction (Example 3); assay type: binding, human
Excerpt: Two peptides with a purity of 90% or more were purchased from BIOSYNTHESIS (Lewisville, Tex.): HCV-1b core protein 35-44 ([…] (SEQ ID NO: 1) capable of inducing an HLA-A2-restricted CTL activity) and HCV-1b NS5A protein 2132-2140 ([…] (SEQ ID NO: 2) capable of inducing an HLA-A24-restricted CTL activity). As a negative control, peptides derived from HIV with an HLA-A2-binding motif ([…] (SEQ ID NO: 64)) and an HLA-A24-binding motif ([…] (SEQ ID NO: 63)) were used.
The level of peptide-specific IgG was measured by an enzyme-linked immunosorbent assay (ELISA). Briefly, each peptide was dissolved in dimethyl sulfoxide (DMSO) and stored at −20° C. The peptide (20 μg/well) diluted with 0.1 M carbonate buffer containing disuccinimidyl suberate (DSS) (PIERCE, Rockford, Ill.) as a chemical crosslinker was bound to an ELISA plate. The wells were washed 3 times with 0.05% Tween 20/PBS (PBST). Then, the plate was blocked overnight at 4° C. with Block Ace (Yukijirushi, Tokyo, Japan). A serum sample was diluted 1:100, 1:200 or 1:400 with 0.05% Tween 20/Block Ace, and 100 μl/well of the sample was added to each well. After the sample was incubated at 37° C. for 2 hours, the plate was washed 9 times with PBST, and further incubated at 37° C. for 2 hours with 100 μl/well of a 1:1000 diluted rabbit anti-human IgG (γ-chain specific) (DAKO Glostrup, Denmark). After the plate was washed 9 times, 100 μl/well of a 1:100 diluted anti-rabbit IgG-conjugated horseradish peroxidase-dextran polymer (En Vision, DAKO) was added to each well, and then the plate was incubated at room temperature for 40 minutes. After the plate was washed, 100 μl/well of a tetramethylbenzidine substrate solution (KPL, Guildford, UK) was added, and the reaction was stopped by the addition of 1.0 M phosphoric acid.
The cross reactivity of two antibodies reactive to the peptides derived from HCV-1b was examined. The sera obtained from 60 HCV patients and patients who are not included in the cohort study (CH, n=22, LC, n=21 and HCC, n=17) were examined for reactivity to the peptides of the core 35-44 (C-35) and NS5A 2132-2140 (NS5A-2132). The sera were also obtained from 24 subjects with an autoimmune disease, 17 cases of HBV infection and 10 cases of HTLV-1 infection. The sera obtained from 37 HDs were used as a negative control. The level of peptide-reactive IgG contained in the serially diluted serum samples was measured by ELISA. The results are reported by the absorbance (OD) of each sample. The representative results of OD at a serum dilution of 100:1 are shown. The cut-off value was set at 0.093 (mean+2 SD of OD from HDs). The statistical analysis was carried out using the χ^2-test. Values of P<0.05 were considered statistically significant.
Then, the correlation between the HLA-class IA phenotype and the level of anti-C-35 IgG or anti-NS5A-2132 IgG was examined in 29 patients with a disease associated with HCV. The HLA-class IA phenotype was determined by a standard serological method. Nine patients were HLA-A2^+, 13 patients were A24^+, and the remaining 7 patients were A2^−-A24^−. The levels of Anti-C-35 and anti-NS5A-2132 were measured by a standard ELISA and the OD value of each patient at a serum dilution of 100:1 is shown in the figure.
Also the correlation between the HCV genotype and the level of anti-C-35 IgG or anti-NS5A-2132 IgG was examined in a double blind study in patients infected with HCV-1b (n=29), HCV-2a (n=16) and HCV-2b (n=3). The HCV genotype was determined by directly sequencing HCV in the serum of the patient. The levels of anti-C-35 and anti-NS5A-2132 were measured by a standard ELISA and the OD value of each patient at a serum dilution of 100:1 is shown. The cut-off value was set at 0.093 (mean+2 SD of OD from HDs).
Then, the sera of CH (n=24), LC (n=22), HCC (n=26) and HDs (n=9) were newly prepared and the level of anti-NS5A-2132 IgG was measured (FIG. 26). […]

[1] = out of 60, cut-off 0.093 OD, serum dilution 100:1

## YLLPRRGPRL [No. 40]
peptide-specific IgG
  absorption of the antibody reactive to C-35 peptide by the peptide: absorbed by C-35
  elution of the antibody reactive to C-35 peptide: eluted from the C-35-adsorbed fraction
peptide-reactive IgG
  IgG level among the 3 groups (CH, LC and HCC patients): no significant difference in the IgG level among the 3 groups
peptide-reactive IgG; 29 patients: HLA-A2+, A24+, A2-A24-
  detection of the anti-peptide antibody by HLA-class IA phenotype: detected in the majority of the patients
peptide-reactive IgG; autoimmune disease, HBV, HTLV-1
  positivity of sera from the other (not HCV) groups: not positive
peptide-reactive IgG; out of 10 cases
  number of HTLV-1+ subjects with a significant level of anti-peptide IgG: 8
peptide-reactive IgG; [1]
  number of HCV-positive patients with a significant level of anti-peptide IgG: 56
  percentage of HCV-positive patients with a significant level of anti-peptide IgG: 93.3%
peptide-reactive IgG; patients infected with HCV-1b, out of 30
  number of patients with the anti-peptide antibody detected: 26
peptide-reactive IgG; patients infected with HCV-2a, out of 15 (C-35) or 16 (NS5A-2132)
  number of patients with the anti-peptide antibody detected: 15
peptide-reactive IgG; patients infected with HCV-2b, out of 3
  number of patients with the anti-peptide antibody detected: 3
